Patent publication US5753648A, “Tricyclic benzazepine vasopressin antagonists” (American Cyanamid Company, priority 1996, dated 1998)

Experiments:
Rat Hepatic V1 Receptors = Rat Hepatic V1 Receptors (Rattus norvegicus, UniProt P30560); assay: Binding Assay to Rat Hepatic V1 Receptors
How it was run: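 Rat liver plasma membranes (20 μg protein, sucrose-gradient isolated) were incubated 120 min at room temperature with [3H]vasopressin (0.8 nM as added) in Tris-HCl buffer with MgCl2, BSA and protease inhibitors. Nonspecific binding was defined with unlabeled phenylalanylvasopressin. Bound radioactivity was collected by filtration and counted by scintillation, and IC50 was from competition analysis.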

oxytocin receptors = target: T1, oxytocin receptors (Rattus norvegicus, UniProt P70536); assay: Oxytocin Receptor Binding
T1 sequence (P70536 1-388): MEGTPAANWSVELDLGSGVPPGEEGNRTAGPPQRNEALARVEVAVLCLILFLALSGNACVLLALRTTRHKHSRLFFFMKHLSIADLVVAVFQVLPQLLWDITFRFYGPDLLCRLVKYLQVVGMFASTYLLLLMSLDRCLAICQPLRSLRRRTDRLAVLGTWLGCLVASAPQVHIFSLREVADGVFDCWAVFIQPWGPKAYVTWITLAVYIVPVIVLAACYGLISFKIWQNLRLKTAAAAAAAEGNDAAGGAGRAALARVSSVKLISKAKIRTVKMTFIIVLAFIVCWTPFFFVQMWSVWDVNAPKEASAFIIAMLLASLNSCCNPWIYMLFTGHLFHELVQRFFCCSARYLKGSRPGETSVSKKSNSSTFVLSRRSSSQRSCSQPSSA
Experimental: Female Sprague-Dawley rats weighing approximately 200-250 g are injected intramuscularly (i.m.) with 0.3 mg/kg of body weight of diethylstilbestrol (DES). The rats are sacrificed 18 hours later under pentobarbital anesthesia. The uteri are dissected out, cleaned of fat and connective tissues and rinsed in 50 ml of normal saline. The tissue pooled from six rats is homogenized in 50 ml of 0.01 mM Tris.HCl, containing 0.5 mM dithiothreitol and 1.0 mM EDTA, adjusted to pH 7.4, using a polytron at setting 6 with three passes of 10 sec each. The homogenate is passed through two (2) layers of cheesecloth and the filtrate centrifuged at 1000×g for 10 min. The clear supernatant is removed and recentrifuged at 165,000×g for 30 min. The resulting pellet containing the oxytocin receptors is resuspended in 50.0 mM Tris.HCl containing 5.0 mM MgCl2 at pH 7.4, to give a protein concentration of 2.5 mg/ml of tissue suspension. This preparation is used in subsequent binding assays with [^3 H]Oxytocin.
Binding of 3,5-[^3 H]Oxytocin ([^3 H]OT) to its receptors is done in microtiter plates using [^3 H]OT, at various concentrations, in an assay buffer of 50.0 mM Tris.HCl, pH 7.4 and containing 5.0 mM MgCl2, and a mixture of protease inhibitors: BSA, 0.1 mg; aprotinin, 1.0 mg; 1,10-phenanthroline, 2.0 mg; trypsin, 10.0 mg; and PMSF, 0.3 mg per 100 ml of buffer solution. Non-specific binding is determined in the presence of 1.0 uM unlabeled OT. The binding reaction is terminated after 60 min., at 220° C., by rapid filtration through glass fiber filters using a Brandel® cell harvester (Bio-medical Research and Development Laboratories, Inc., Gaithersburg, Md.). Competition experiments are conducted at equilibrium using 1.0 nM [^3 H]OT and varying the concentration of the displacing agents. The concentrations of agent displacing 50% of [^3 H]OT at its sites (IC50) are calculated by a computer assisted LUNDON-2 program (LUNDON SOFTWARE INC., Ohio, USA).

[1] = target: T2, Human V2 Vasopressin Receptor (Homo sapiens, UniProt P30518); assay: Binding to Membranes of Mouse Fibroblast Cell Line (LV-2) Transfected with the cDNA Expressing the Human V2 Vasopressin Receptor; conditions: ** LV-2 cells transfected with human V2 receptor cDNA; read-out: V2 IC50 (**human V2 receptor)
T2 construct: expressed in transfected cells; host or cells: mouse fibroblast cell line LV-2
T2 sequence (P30518 whole entry): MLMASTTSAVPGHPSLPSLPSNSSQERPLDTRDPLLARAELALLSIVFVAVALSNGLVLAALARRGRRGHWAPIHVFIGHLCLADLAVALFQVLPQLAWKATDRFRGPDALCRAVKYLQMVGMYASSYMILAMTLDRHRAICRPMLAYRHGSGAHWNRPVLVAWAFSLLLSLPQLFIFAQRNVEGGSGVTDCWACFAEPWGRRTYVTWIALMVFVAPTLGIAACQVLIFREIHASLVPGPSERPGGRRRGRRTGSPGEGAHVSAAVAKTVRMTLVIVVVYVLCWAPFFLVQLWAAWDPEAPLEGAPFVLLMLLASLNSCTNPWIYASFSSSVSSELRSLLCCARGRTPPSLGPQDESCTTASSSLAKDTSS
Experimental: Binding to Membranes of Mouse Fibroblast Cell Line (LV-2) Transfected with the cDNA Expressing the Human V2 Vasopressin Receptor Membrane Preparation
Flasks of 175 ml capacity, containing attached cells grown to confluence, are cleared of culture medium by aspiration. The flasks containing the attached cells are rinsed with 2×5 ml of phosphate buffered saline (PBS) and the liquid aspirated off each time. Finally, 5 ml of an enzyme free dissociation Hank's based solution (Specialty Media, Inc., Lafayette, N.J.) is added and the flasks are left undisturbed for 2 min. The content of all flasks is poured into a centrifuge tube and the cells pelleted at 300×g for 15 min. The Hank's based solution is aspirated off and the cells homogenized with a polytron at setting #6 for 10 sec in 10.0 mM Tris.HCl buffer, pH 7.4 containing 0.25M sucrose and 1.0 mM EDTA. The homogenate is centrifuged at 1500×g for 10 min to remove ghost membranes. The supernatant fluid is centrifuged at 100,000×g for 60 min to pellet the receptor protein. Upon completion, the pellet is resuspended in a small volume of 50.0 mM Tris.HCl buffer, pH 7.4. The protein content is determined by the Lowry method and the receptor membranes are suspended in 50.0 mM Tris.HCl buffer containing 0.1 mM phenylmethylsulfonylfluoride (PMSF) and 0.2% bovine serum albumin (BSA) to give 2.5 mg receptor protein per ml of suspension.
For binding experiments, the following is added in μl volume to wells of a 96 well format of a microtiter plate: 100.0 μl of 100.0 mM Tris.HCl buffer containing 0.2% heat inactivated BSA, 10.0 mM MgCl2 and a mixture of protease inhibitors: leupeptin, 1.0 mg %; aprotinin, 1.0 mg %; 1,10-phenanthroline, 2.0 mg %; trypsin inhibitor, 10.0 mg % and 0.1 mM PMSF, 20.0 μl of [^3 H] Arginine^8, vasopressin (S.A. 75.0 Ci/mmole) at 0.8 nM and the reaction initiated by the addition of 80.0 μl of tissue membranes (200.0 μg tissue protein). The plates are left undisturbed on the bench top for 120 min to reach equilibrium. Non specific binding is assessed in the presence of 1.0 μm of unlabeled ligand, added in 20 μl volume. For test compounds, these are solubilized in 50% dimethylsulfoxide (DMSO) and added in 20.0 μl volume to a final incubation volume of 200 μl. Upon completion of binding, the content of each well is filtered off, using a Brandel® cell Harvester (Gaithersburg, Md.). The radioactivity trapped on the filter disk by the ligand-receptor complex is assessed by liquid scintillation counting in a Packard LS Counter, with an efficiency of 65% for tritium. The data are analyzed for IC50 values by the LUNDON-2 program for competition (LUNDON SOFTWARE, Ohio).

Chain of Rat Hepatic V1 Receptors (P30560 whole entry): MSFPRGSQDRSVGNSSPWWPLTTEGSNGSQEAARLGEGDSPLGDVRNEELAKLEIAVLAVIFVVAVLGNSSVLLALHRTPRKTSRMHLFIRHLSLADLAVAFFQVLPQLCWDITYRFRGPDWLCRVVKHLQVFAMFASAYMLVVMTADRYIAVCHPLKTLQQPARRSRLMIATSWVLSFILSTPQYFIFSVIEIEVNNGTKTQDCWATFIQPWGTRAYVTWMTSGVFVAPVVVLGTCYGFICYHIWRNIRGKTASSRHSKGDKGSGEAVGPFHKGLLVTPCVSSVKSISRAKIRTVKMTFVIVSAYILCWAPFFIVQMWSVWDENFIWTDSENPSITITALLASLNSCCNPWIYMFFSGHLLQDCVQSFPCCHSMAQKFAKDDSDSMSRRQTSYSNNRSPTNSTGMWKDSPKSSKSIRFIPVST

Cc1ccc(F)cc1C(=O)Nc1ccc(C(=O)N2Cc3cccn3Cc3ccccc32)cn1 [Example 1, N-[5-(5H-Pyrrolo[2,1-c][1,4]benzodiazetin-10(11H)-ylcarbonyl)-2-pyridinyl]-5-fluoro-2-methylbenzamide]
IC50 (Rat Hepatic V1 Receptors): 0.033 µM | inhibition at 10 µM (oxytocin receptors; dose 10 μM): 92% | IC50 (oxytocin receptors; rat uterine membranes, [3H]oxytocin): 0.2 µM | IC50 [1]: 0.005 µM
